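Method: 48-hour compound exposure of cells in 96-well plates, five concentrations, linear interpolation of endpoints. GI50 = concentration required for 50% inhibition of growth. At the TGI there is no net growth.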
Legend:
Test in all cases: DTP human tumour cell line panel, 48 h
[1] = tested on: 786-0 renal
[2] = tested on: A498 renal
[3] = tested on: A549 NSCLC
[4] = tested on: ACHN renal
[5] = tested on: BT-549 breast
[6] = tested on: CAKI-1 renal
[7] = tested on: CCRF-CEM leukemia
[8] = tested on: COLO 205 colon
[9] = tested on: DU-145 prostate
[10] = tested on: EKVX NSCLC
[11] = tested on: HCC-2998 colon
[12] = tested on: HCT-116 colon
[13] = tested on: HCT-15 colon
[14] = tested on: HL-60(TB) leukemia
[15] = tested on: HOP-62 NSCLC
[16] = tested on: HOP-92 NSCLC
[17] = tested on: HS 578T breast
[18] = tested on: HT29 colon
[19] = tested on: IGROV1 ovarian
[20] = tested on: K-562 leukemia
[21] = tested on: KM12 colon
[22] = tested on: LOX IMVI melanoma
[23] = tested on: M14 melanoma
[24] = tested on: MALME-3M melanoma
[25] = tested on: MCF7 breast
[26] = tested on: MDA-MB-231 breast
[27] = tested on: MDA-MB-435
[28] = tested on: MOLT-4 leukemia
[29] = tested on: NCI-H226 lung
[30] = tested on: NCI-H23 lung
[31] = tested on: NCI-H460 lung
[32] = tested on: NCI-H522 lung
[33] = tested on: NCI/ADR-RES ovarian
[34] = tested on: OVCAR-3 ovarian
[35] = tested on: OVCAR-4 ovarian
[36] = tested on: OVCAR-5 ovarian
[37] = tested on: OVCAR-8 ovarian
[38] = tested on: PC-3 prostate
[39] = tested on: RPMI-8226 leukemia
[40] = tested on: RXF 393 renal
[41] = tested on: SF-268 CNS
[42] = tested on: SF-295 CNS
[43] = tested on: SF-539 CNS
[44] = tested on: SK-MEL-2 melanoma
[45] = tested on: SK-MEL-28 melanoma
[46] = tested on: SK-MEL-5 melanoma
[47] = tested on: SK-OV-3 ovarian
[48] = tested on: SN12C renal
[49] = tested on: SNB-19 CNS
[50] = tested on: SNB-75 CNS
[51] = tested on: SR leukemia
[52] = tested on: SW-620 colon
[53] = tested on: T-47D breast
[54] = tested on: TK-10 renal
[55] = tested on: U251 CNS
[56] = tested on: UACC-257 melanoma
[57] = tested on: UACC-62 melanoma
[58] = tested on: UO-31 renal

`CSc1nc(N)cc(Oc2ccc(-c3nc(Nc4cccc(C(F)(F)F)c4)n[nH]3)cc2)n1` gave a GI50 [1] of 1280 nM, a TGI [1] of 4860 nM and a GI50 [2] of 486 nM. It also gave a TGI [2] of 5250 nM, a GI50 [3] of 737 nM and a TGI [3] of 9510 nM. It also gave a GI50 [4] of 873 nM, a TGI [4] of 9640 nM and a GI50 [5] of 721 nM. It also gave a TGI [5] of 6820 nM, a GI50 [6] of 640 nM and a TGI [6] of 3670 nM. The GI50 [7] was 773 nM, the TGI [7] was greater than 43500 nM and the GI50 [8] was 897 nM. For the same molecule, the TGI [8] was 4050 nM, the GI50 [9] was 1280 nM and the TGI [9] was 9530 nM. For the same molecule, the GI50 [10] was 1660 nM, the TGI [10] was 10100 nM and the GI50 [11] was 1330 nM. For the same molecule, the TGI [11] was 4960 nM, the GI50 [12] was 456 nM and the TGI [12] was 2150 nM. It also gave a GI50 [13] of 531 nM, a TGI [13] of 8070 nM and a GI50 [14] of 2360 nM. For the same molecule, the TGI [14] was 9230 nM, the GI50 [15] was 593 nM and the TGI [15] was 4990 nM. The GI50 [16] was 1300 nM, the TGI [16] was 6000 nM and the GI50 [17] was 642 nM. The TGI [17] was 9290 nM, the GI50 [18] was 432 nM and the TGI [18] was 2710 nM. For the same molecule, the GI50 [19] was 1880 nM, the TGI [19] was 18300 nM and the GI50 [20] was 522 nM. The TGI [20] was greater than 35300 nM, the GI50 [21] was 498 nM and the TGI [21] was 4460 nM. The GI50 [22] was 520 nM, the TGI [22] was 2050 nM and the GI50 [23] was 483 nM. It also gave a TGI [23] of 3850 nM, a GI50 [24] of 1190 nM and a TGI [24] of 8420 nM. The GI50 [25] was 357 nM, the TGI [25] was 5020 nM and the GI50 [26] was 1790 nM. The TGI [26] was 8630 nM, the GI50 [27] was 255 nM and the TGI [27] was 744 nM. For the same molecule, the GI50 [28] was 1250 nM, the TGI [28] was greater than 38400 nM and the GI50 [29] was 1810 nM. It also gave a TGI [29] of 7690 nM, a GI50 [30] of 893 nM and a TGI [30] of 10200 nM. The GI50 [31] was 440 nM, the TGI [31] was 3030 nM and the GI50 [32] was 651 nM. The TGI [32] was 4060 nM, the GI50 [33] was 1110 nM and the TGI [33] was 7450 nM. For the same molecule, the GI50 [34] was 336 nM, the TGI [34] was 1220 nM and the GI50 [35] was 2060 nM. It also gave a TGI [35] of 13100 nM, a GI50 [36] of 2380 nM and a TGI [36] of 14600 nM. It also gave a GI50 [37] of 1360 nM, a TGI [37] of 10300 nM and a GI50 [38] of 1130 nM. It also gave a TGI [38] of 9410 nM, a GI50 [39] of 1900 nM and a TGI [39] of 12600 nM. For the same molecule, the GI50 [40] was 504 nM, the TGI [40] was 2250 nM and the GI50 [41] was 894 nM. The TGI [41] was 12500 nM, the GI50 [42] was 784 nM and the TGI [42] was 6240 nM. It also gave a GI50 [43] of 621 nM, a TGI [43] of 4190 nM and a GI50 [44] of 789 nM. For the same molecule, the TGI [44] was 6060 nM, the GI50 [45] was 1460 nM and the TGI [45] was 10400 nM. The GI50 [46] was 416 nM, the TGI [46] was 1570 nM and the GI50 [47] was 516 nM. For the same molecule, the TGI [47] was 3930 nM, the GI50 [48] was 1150 nM and the TGI [48] was 12300 nM. The GI50 [49] was 1220 nM, the TGI [49] was 14900 nM and the GI50 [50] was 371 nM. It also gave a TGI [50] of 4460 nM, a GI50 [51] of 354 nM and a TGI [51] greater than 100000 nM. For the same molecule, the GI50 [52] was 478 nM, the TGI [52] was 13600 nM and the GI50 [53] was 810 nM. It also gave a TGI [53] of 5110 nM, a GI50 [54] of 1540 nM and a TGI [54] of 7730 nM. For the same molecule, the GI50 [55] was 548 nM, the TGI [55] was 4730 nM and the GI50 [56] was 776 nM. The TGI [56] was 6340 nM, the GI50 [57] was 474 nM and the TGI [57] was 4720 nM. The GI50 [58] was 1600 nM and the TGI [58] was 11300 nM.

From PubChem BioAssay (NCI)
